Assay results: patent US20160106821A1, “FUNCTIONAL GHRELIN RECEPTOR ANTAGONISM DURING PREGNANCY TO PREVENT STRESS-ASSOCIATED MENTAL ILLNESS IN OFFSPRING AND MOTHERS” (Massachusetts Institute of Technology, priority 2014, published 2016)

Tests used:
post-partum mothers = test: Depressive behaviors in post-partum mothers; assay type: in vivo; conditions: MK-0677 treatment vs vehicle control (FIG. 1)
Excerpt: FIG. 1 is a graph depicting depressive behaviors in post-partum mothers. […] The data is shown in Figure, a bar graph depicting depressive behaviors in post-partum mothers in response to vehicle control of MK-0677 treatment. Experiments were designed to determine the effects of elevated ghrelin activity on the fetus.

offspring = test: Anhedonia (sucrose preference) in offspring after perinatal / in-womb exposure; assay type: in vivo
Excerpt: FIG. 2 is a diagram depicting the protocol for analysis of babies following birth. FIG. 3 depicts the design of the study with protocols involving vehicle control, low MK0677 or high MK0677 treatment. FIG. 4 is a graph depicting the effects of perinatal exposure to MK0677 on female (dark bar) versus male (lighter gray bar) offspring. V refers to a vehicle control. H refers to high MK0677 exposure levels. FIG. 5 is a graph depicting the effects of exposure to MK0677 in the womb on offspring. The first set of experiments was designed to determine the degree of anhedonia in offspring when raised by an MK-treated mom. Anhedonia is the inability of a subject to experience pleasure from activities usually found enjoyable. A first experiment was conducted to show the effects of perinatal exposure to MK0677 on female versus male offspring. V refers to a vehicle control. H refers to high MK0677 exposure levels. […] Additionally the foster mother had no effect. […] Another study involved determining the effects of exposure to MK0677 in the womb on offspring.

CC(C)(N)C(=O)N[C@H](COCc1ccccc1)C(=O)N1CCC2(CC1)CN(S(C)(=O)=O)c1ccccc12 [MK-0677]
maternal depressive behaviors (post-partum mothers): enhanced maternal depressive behaviors | sucrose preference in offspring (offspring; offspring from mothers exposed to high MK levels (n=11) vs controls (n=12), t-test, p=0.03 (FIG. 5)): significantly lower compared to controls | degree of anhedonia in offspring: female versus male response (offspring; perinatal exposure, high MK0677 vs vehicle, female versus male offspring (FIG. 4)): no difference was seen between the response of male and female babies | degree of anhedonia in offspring: foster versus biological mother (offspring; perinatal exposure, high MK0677 vs vehicle, foster mother had no effect (FIG. 4)): an influence was observed for the biological mother | preference of sucrose solution to water (vs. 50%) (offspring; pups from MK mothers, pups from vehicle-treated mothers significantly preferred sucrose (p=0.046 vs. 50%)): did not
